Data from patent US20160287672A1, “METHOD OF TREATING CHRONIC HEART FAILURE BY ADMINISTERING RELAXIN” (priority 2008, published 2016).
Like-named read-outs stand apart in the source and are kept apart here.

Tests used:
[1] = system: patients with chronic and stable compensated congestive HF; assay: Open-label pilot study of IV recombinant relaxin over 24 hours in chronic heart failure patients; type: in vivo, human; details: for CI Change from baseline / CO Change from baseline / DBP Change from baseline / HR Change from baseline / PAP Change from baseline / PCWP Change from baseline / PVR Change from baseline / RAP Change from baseline / SBP Change from baseline / SVR Change from baseline: 960 mcg/kg/d IV, mean ± SD
Experimental: Overview. In this open-label study 16 patients with chronic and stable compensated congestive HF were enrolled in three dose-ascending cohorts of recombinant intravenous relaxin (10 to 960 mcg/kg/day) over 24 hours. Relaxin produced increases in cardiac index and stroke volume, and a decrease in pulmonary wedge pressure and NT-pro BNP. It improved markers of renal function, with a small rebound at the highest dose during post-infusion. […] A maximally tolerated dose was determined.
Design of Study. In this single-center, open-label study, 16 patients who fulfilled inclusion and but not exclusion criteria for chronic and stable compensated congestive HF were sequentially allocated to three ascending cohorts of intravenous (IV) relaxin. Main inclusion criteria included: Age >18 years; NYHA CHF Class II-III without restriction on etiology; left ventricular ejection fraction <35% within 6 months of enrollment; receiving established oral HF therapy expected to remain unchanged during the study period. Main exclusion criteria included: Wedge pressure <16 mmH or CI >2.5 L/min/m2; acute coronary syndrome (within 4 weeks) or recent myocardial infarction or cardiac surgery (within 6 months); AHF requiring intravenous therapy at baseline; systolic blood pressure <85 mmHg; uncorrected valvular heart disease, except for relative mitral and/or tricuspid valve insufficiency; obstructive or restrictive cardiomyopathy; recent episode of ventricular tachycardia or fibrillation (within 4 weeks); recent stroke (within 3 months); creatinine >2.0 mg/dl or serum transaminases and/or total bilirubin >2.5 times the upper limit of normal at screening visit; history of endometriosis.
The study drug was relaxin (produced by recombinant technology). Recombinant relaxin is identical to the native human hormone H2 relaxin. The dose escalation was as follows: Group A included sequential treatment for 8 hours each with dosages equivalent to 10, 30, and 100 mcg/kg/day. Group B included sequential treatment for 8 hours each with dosages equivalent to 240, 480, and 960 mcg/kg/day. Group C received 24 hours of treatment with 960 mcg/kg/day. Escalation from Group A to Group B was done after examining safety and tolerability of the doses used in Group A. Escalation from Group B to C occurred after the safety and tolerability of the highest dose in Group B (960 mcg/kg/day) was determined.
Patients were monitored in the intensive care unit for the infusion and post-infusion periods (24 hours either). Hemodynamic measurements, including CI, SVR, PCWP, SBP, RAP, and PVR, were serially performed using Swan-Ganz and arterial catheters. Likewise, clinical and laboratory monitoring was carried out serially throughout infusion and post-infusion and on Day 9 after beginning of infusion. An additional 30-day evaluation for serious adverse events was performed by phone. Endpoints included hemodynamic and neurohumoral (NT-pro BNP levels) changes from baseline, as well as monitoring of vital signs, electrocardiogram, serum chemistry, and hematology parameters throughout the study. For statistical analysis, an error probability of P<0.05 was regarded as significant. Baseline values were compared using the Kruskal-Wallis ANOVA on ranks followed by Dunn's test. Differences over time within the single groups (hemodynamics, renal parameter, and peptide levels) were analyzed with a Friedman Repeated Measures Analysis of Variance on Ranks followed by Dunn's test for comparison against the baseline.

healthy volunteers = details: cited from earlier work
[2] = system: hypertensive and normotensive rats; details: cited from earlier work
[3] = system: systemic sclerosis patients; details: scleroderma patients (Seibold et al. 2000); cited from earlier work
[4] = system: systemic sclerosis patients; assay: Clinical trials of relaxin by continuous subcutaneous infusion for six months in systemic sclerosis patients; type: in vivo, human; details: continuous SQ infusion for six months
Source text: Clinical trials with relaxin have also been conducted on systemic sclerosis patients. 257 human subjects who suffer from systemic sclerosis, a serious fibrotic disease, have been treated with relaxin by continuous and subcutaneous (SQ) infusion for six months. […] These findings support the hypothesis that relaxin administration was associated with balanced systemic and renal vasodilation.

[5] = Group C, 960 mcg/kg/d IV over 24 hours

Substance: relaxin: Study drug produced by recombinant technology, identical to the native human hormone H2 relaxin; peptide hormone of A and B chains
- CI Change from baseline ([1]; Group B, 8 hr): 0.25 ± 0.3 L/min/m2
- CO Change from baseline ([1]; Group B, 8 hr): 0.48 ± 0.7 L/min
- DBP Change from baseline ([1]; Group B, 8 hr): −0.3 ± 6.8 mmHg
- HR Change from baseline ([1]; Group B, 8 hr): 1.8 ± 3.4 beats/min
- PAP Change from baseline ([1]; Group B, 8 hr): 0.3 ± 3.7 mmHg
- PCWP Change from baseline ([1]; Group B, 8 hr): −0.17 ± 2.7 mmHg
- PVR Change from baseline ([1]; Group B, 8 hr): 3.3 ± 27.5 dynes * sec/cm5
- RAP Change from baseline ([1]; Group B, 8 hr): 0.8 ± 1.2 mmHg
- SBP Change from baseline ([1]; Group B, 8 hr): −3.0 ± 5.1 mmHg
- SVR Change from baseline ([1]; Group B, 8 hr): −102 ± 248 dynes * sec/cm5
- absolute decreases in PCWP [1, 5]: approximately 4 mm Hg
- absolute increases of CI [1, 5]: up to 0.81 /min/m2
- CI Change from baseline ([1]; Group C, 8 hr): 0.43 ± 0.3 L/min/m2
- CO Change from baseline ([1]; Group C, 8 hr): 0.85 ± 0.5 L/min
- DBP Change from baseline ([1]; Group C, 8 hr): −4.8 ± 5.4 mmHg
- HR Change from baseline ([1]; Group C, 8 hr): 2.5 ± 4.3 beats/min
- PAP Change from baseline ([1]; Group C, 8 hr): −3.2 ± 3.1 mmHg
- PCWP Change from baseline ([1]; Group C, 8 hr): −2.5 ± 3.5 mmHg
- PVR Change from baseline ([1]; Group C, 8 hr): −58.5 ± 69.4 dynes * sec/cm5
- RAP Change from baseline ([1]; Group C, 8 hr): −1.2 ± 2.9 mmHg
- SBP Change from baseline ([1]; Group C, 8 hr): −1.3 ± 4.7 mmHg
- SVR Change from baseline ([1]; Group C, 8 hr): −255 ± 188 dynes * sec/cm5
- CI Change from baseline ([1]; Group C, 24 hr): 0.67 ± 0.15 L/min/m2
- CO Change from baseline ([1]; Group C, 24 hr): 1.25 ± 0.03 L/min
- DBP Change from baseline ([1]; Group C, 24 hr): −6.5 ± 7.5 mmHg
- HR Change from baseline ([1]; Group C, 24 hr): 0.67 ± 3.6 beats/min
- PAP Change from baseline ([1]; Group C, 24 hr): −5.0 ± 3.4 mmHg
- PCWP Change from baseline ([1]; Group C, 24 hr): −3.5 ± 3.0 mmHg
- PVR Change from baseline ([1]; Group C, 24 hr): −82.5 ± 55.5 dynes * sec/cm5
- RAP Change from baseline ([1]; Group C, 24 hr): −1.5 ± 2.7 mmHg
- SBP Change from baseline ([1]; Group C, 24 hr): −7.3 ± 9.5 mmHg
- SVR Change from baseline ([1]; Group C, 24 hr): −395 ± 217 dynes * sec/cm5
- drop of PVR ([1]; Group C, 960 mcg/kg/day IV): ~30%
- time course of NT-pro BNP ([1]; Groups A and C): significant declines
- creatinine and BUN post-infusion ([1]; after doses equivalent to 960 mcg/kg/day IV, spontaneously resolved by Day 30): increase on Day 9
- tolerability ([1]; all doses, 10-960 mcg/kg/day IV): well tolerated
- infusion-related adverse events ([1]; all groups): no infusion-related clinically significant adverse events
- symptomatic hypotension ([1]; all groups): no symptomatic hypotension was observed
- heart rate ([1]; all groups, 10-960 mcg/kg/d IV): did not change in any group
- creatinine values during infusion ([1]; all groups, significant in groups A and C): decreased
- right atrial pressure ([1]; all treatment groups): None of the treatment groups showed a significant decrease
- alterations of SBP ([1]; in general, all groups): significant alterations of SBP (FIG. 8) were not observed
- vital signs, ECG, serum chemistry, and hematology parameters ([1]; throughout the study): did not evoke any abnormalities
- maximally tolerated dose (MTD) of IV relaxin ([1]; without physician supervision, chronic HF patients): 240 to 480 µg/kg/day
- renal blood flow (healthy volunteers): increases renal blood flow
- CI [2]: increase in CI
- SVR [2]: decrease in SVR
- mean arterial pressure [2]: without affecting mean arterial pressure
- predicted creatinine clearance [3]: sustained amelioration
- blood pressure [4]: stable decreases in blood pressure
- predicted creatinine clearance [4]: statistically significant increase
- serious hypotensive events [4]: did not experience any serious hypotensive events
